Laboratory results as given in patent US20020051799A1, “Glucosylated hydroxystilbene compounds for treating skin conditions” (priority 2000, published 2002).

How the values were obtained:
[1] = glucosylated form compared with the non glucosylated form; cited from earlier work
tyrosinase = experiment: Spectrophotometric tyrosinase assay (255 nm); type: biochemical
Method: A glucosylated resveratrol (4′,5-dihydroxystilbene-3-O-beta-D-glucoside) (APIN Chemicals N17555p, 29 D Milton Park, Abingdon, Oxon, United Kingdom) was incubated in the presence of an extract of stratum corneum or of a homogenate of hair follicles that had been removed by plucking. Under precise experimental conditions, the affinity of the resveratrol for tyrosinase was higher than for glucosylated resveratrol. This property was advantageously employed to measure the resveratrol liberated in the presence of tyrinosase, determined at 255 nm. This method was adapted from the method described by A. A. Calderon: “A Spectrophotometric Assay for Quantitative Analysis of the Oxidation of 4-hydroxystilbene by Peroxidase-H2O2 Systems: J. of Biochem. and Biophys. (1990) Methods 20: 171-180.
A 200 μl aliquot was removed and 10 μl of tyronisase was added.
Two independent measurements were carried out by determining the optical density at 255 nm over 10 minutes and calculating the slope of the graph (60 to 300 seconds).
Under the same conditions, a calibration curve was produced using resveratrol (1; 2.5; 5; 7.5 and 10 μl) in a volume adjusted to […].

For `OC[C@H]1O[C@@H](Oc2cc(O)cc(/C=C/c3ccc(O)cc3)c2)[C@H](O)[C@@H](O)[C@@H]1O` [glucosylated resveratrol, 4′,5-dihydroxystilbene-3-O-beta-D-glucoside], the antioxidant activity [1] is listed as “far inferior”.

For `Oc1ccc(C=Cc2cc(O)cc(O)c2)cc1` [resveratrol, 3,4′,5-trihydroxystilbene], the affinity for tyrosinase (tyrosinase; compared with glucosylated resveratrol, under precise experimental conditions) was “higher” and the “concentrations at which resveratrol action was demonstrated” value (tyrosinase; in vitro tests) was “less than 10 μm”.
